Assay results: patent publication US20250236608A1, “EGFR INHIBITORS” (Blueprint Medicines Corporation, priority 2022, published 2025)

Legend:
EGFR L858R = EGFR L858R (Homo sapiens (Human), UniProt P00533, L858R); assay: Biochemical EGFR inhibition assay, EGFR L858R; settings: Caliper mobility shift; 1.0 mM ATP or ATP Km; read-out: Enz EGFR_L858R IC50
[1] = target: pEGFR (Tyr1068) in PC-9 cells (Ex19Del) (Homo sapiens (Human), UniProt P00533, DEL746-750); assay: PC-9 pEGFR AlphaLISA assay; assay type: cell-based; settings: 4 hours incubation, p-EGFR (Tyr1068) AlphaLISA, read-out: Ext pEGFR_PC-9 Ex19Del IC50
How it was run: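 Phospho-EGFR (Tyr1068) was quantified by AlphaLISA SureFire Ultra in lysates of PC-9 cells exposed for 4 h to compound (4-fold, 10-point dilutions).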

EGFR (d746-750) = EGFR (d746-750) (Homo sapiens (Human), UniProt P00533, DEL746-750); assay: Biochemical EGFR inhibition assay, EGFR (d746-750); settings: Caliper mobility shift; 1.0 mM ATP or ATP Km; read-out: Enz EGFR_Exon19-del746-750 IC50
EGFR (d746-750), sequence (P00533 other isoform, or with tags, fused parts or gaps del 1-694/del 746-750 limits assumed): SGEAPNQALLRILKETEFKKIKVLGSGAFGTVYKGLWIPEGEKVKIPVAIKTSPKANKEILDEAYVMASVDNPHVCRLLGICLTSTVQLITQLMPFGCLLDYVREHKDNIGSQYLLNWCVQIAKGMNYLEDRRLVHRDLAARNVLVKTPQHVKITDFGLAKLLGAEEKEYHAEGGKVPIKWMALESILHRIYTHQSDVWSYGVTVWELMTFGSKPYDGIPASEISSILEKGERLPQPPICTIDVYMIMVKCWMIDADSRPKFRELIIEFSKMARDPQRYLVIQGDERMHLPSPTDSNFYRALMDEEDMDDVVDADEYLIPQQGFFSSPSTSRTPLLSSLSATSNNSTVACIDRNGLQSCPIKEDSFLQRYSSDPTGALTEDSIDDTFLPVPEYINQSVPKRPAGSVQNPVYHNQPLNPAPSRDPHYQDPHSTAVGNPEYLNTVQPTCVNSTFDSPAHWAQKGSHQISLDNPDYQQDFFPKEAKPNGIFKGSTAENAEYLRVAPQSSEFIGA

EGFR L858R, sequence (P00533 25-1210 L858R): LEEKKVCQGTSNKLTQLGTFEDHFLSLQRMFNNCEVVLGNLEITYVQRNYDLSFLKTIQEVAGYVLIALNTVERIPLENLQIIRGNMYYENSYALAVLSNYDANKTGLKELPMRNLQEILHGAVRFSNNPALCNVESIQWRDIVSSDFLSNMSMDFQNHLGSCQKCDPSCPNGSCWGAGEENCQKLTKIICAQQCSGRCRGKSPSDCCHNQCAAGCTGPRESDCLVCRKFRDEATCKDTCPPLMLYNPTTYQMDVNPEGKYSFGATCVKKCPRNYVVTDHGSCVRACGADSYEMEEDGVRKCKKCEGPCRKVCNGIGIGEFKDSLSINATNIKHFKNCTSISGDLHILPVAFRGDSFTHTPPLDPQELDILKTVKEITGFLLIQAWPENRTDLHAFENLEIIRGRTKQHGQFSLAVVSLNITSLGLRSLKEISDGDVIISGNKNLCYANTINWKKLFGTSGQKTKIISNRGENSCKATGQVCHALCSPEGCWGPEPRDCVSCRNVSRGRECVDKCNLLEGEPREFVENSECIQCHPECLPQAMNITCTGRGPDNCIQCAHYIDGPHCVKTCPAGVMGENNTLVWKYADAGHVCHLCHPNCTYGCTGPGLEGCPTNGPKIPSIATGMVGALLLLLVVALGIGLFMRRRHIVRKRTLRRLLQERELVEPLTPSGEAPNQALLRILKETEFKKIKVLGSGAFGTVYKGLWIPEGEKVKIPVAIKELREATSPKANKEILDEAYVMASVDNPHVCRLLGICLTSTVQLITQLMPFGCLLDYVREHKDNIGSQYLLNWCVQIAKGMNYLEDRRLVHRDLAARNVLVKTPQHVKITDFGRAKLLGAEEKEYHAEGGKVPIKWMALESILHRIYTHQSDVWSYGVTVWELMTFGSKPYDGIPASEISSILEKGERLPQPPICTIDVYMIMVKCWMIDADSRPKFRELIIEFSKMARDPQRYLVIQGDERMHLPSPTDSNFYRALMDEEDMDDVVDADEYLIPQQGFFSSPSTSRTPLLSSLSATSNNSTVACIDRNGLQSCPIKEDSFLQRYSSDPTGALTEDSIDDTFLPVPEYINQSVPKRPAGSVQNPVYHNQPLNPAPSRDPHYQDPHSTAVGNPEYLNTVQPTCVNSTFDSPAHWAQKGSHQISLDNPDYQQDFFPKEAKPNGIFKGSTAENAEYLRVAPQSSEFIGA
pEGFR (Tyr1068) in PC-9 cells (Ex19Del), sequence (P00533 other isoform, or with tags, fused parts or gaps del 746-750): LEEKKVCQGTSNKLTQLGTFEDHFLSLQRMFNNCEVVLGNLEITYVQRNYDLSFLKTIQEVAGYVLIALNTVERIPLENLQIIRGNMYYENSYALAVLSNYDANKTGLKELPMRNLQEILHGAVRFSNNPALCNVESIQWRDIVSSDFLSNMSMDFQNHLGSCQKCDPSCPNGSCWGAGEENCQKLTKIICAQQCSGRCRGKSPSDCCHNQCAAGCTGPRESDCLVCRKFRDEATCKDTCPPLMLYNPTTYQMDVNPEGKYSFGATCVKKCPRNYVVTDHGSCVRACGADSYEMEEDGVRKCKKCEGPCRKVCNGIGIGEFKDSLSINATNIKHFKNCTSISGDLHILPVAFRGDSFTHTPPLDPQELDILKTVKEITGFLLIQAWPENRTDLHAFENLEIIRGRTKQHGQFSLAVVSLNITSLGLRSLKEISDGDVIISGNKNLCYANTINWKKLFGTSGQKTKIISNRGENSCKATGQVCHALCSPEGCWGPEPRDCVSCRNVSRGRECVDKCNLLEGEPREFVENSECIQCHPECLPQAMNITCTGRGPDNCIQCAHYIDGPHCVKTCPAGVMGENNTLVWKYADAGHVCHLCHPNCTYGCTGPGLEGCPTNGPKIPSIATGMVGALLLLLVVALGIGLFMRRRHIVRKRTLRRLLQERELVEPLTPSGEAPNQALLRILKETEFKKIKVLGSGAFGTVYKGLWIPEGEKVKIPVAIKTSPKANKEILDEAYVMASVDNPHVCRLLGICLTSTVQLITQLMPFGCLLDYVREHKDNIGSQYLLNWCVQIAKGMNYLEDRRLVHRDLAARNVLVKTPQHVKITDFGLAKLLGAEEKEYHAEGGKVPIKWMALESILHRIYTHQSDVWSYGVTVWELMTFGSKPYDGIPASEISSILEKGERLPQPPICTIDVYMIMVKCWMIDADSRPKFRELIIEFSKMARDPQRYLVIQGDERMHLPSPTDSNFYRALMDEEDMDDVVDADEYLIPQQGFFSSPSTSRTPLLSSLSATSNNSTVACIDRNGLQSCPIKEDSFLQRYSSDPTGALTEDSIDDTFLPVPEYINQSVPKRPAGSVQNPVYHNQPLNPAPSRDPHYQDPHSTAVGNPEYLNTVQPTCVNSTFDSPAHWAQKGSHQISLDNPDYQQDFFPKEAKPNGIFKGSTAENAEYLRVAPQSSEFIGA

| IC50 (EGFR L858R) [nM] | IC50 [1] [nM] | IC50 (EGFR (d746-750)) [nM] | SMILES |
| --- | --- | --- | --- |
| 1.4 | 2.1 | 0.9 | CCOc1cc2ncnc(-c3cn(C(C)C)nc3-c3ccccc3)c2cc1CO [Example 125, (7-ethoxy-4-(1-isopropyl-3-phenyl-1H-pyrazol-4-yl)quinazolin-6-yl)methanol] |
| 306 | 589 | 349 | CCC(=O)Nc1cc2c(-c3cnn(C4CCOCC4)c3-c3ccccc3)ncnc2cc1OC [Example 498] |
| 5.3 | 4.6 | 2 | COc1cc2ncnc(-c3cn(C)nc3-c3ccccc3)c2nc1O[C@@H](C)c1nnc(C)o1 [Example 37, (S)-2-(1-((7-methoxy-4-(1-methyl-3-phenyl-1H-pyrazol-4-yl)pyrido[3,2-d]pyrimidin-6-yl)oxy)ethyl)-5-methyl-1,3,4-oxadiazole] |
| 1.1 | 2.4 | 0.5 | COc1cc2ncnc(-c3c[nH]nc3-c3ccccc3)c2cc1[C@H]1CCCCO1 (single isomer, unassigned) [Example 133, (R)-7-methoxy-4-(3-phenyl-1H-pyrazol-4-yl)-6-(tetrahydro-2H-pyran-2-yl)quinazoline or (S)-7-methoxy-4-(3-phenyl-1H-pyrazol-4-yl)-6-(tetrahydro-2H-pyran-2-yl)quinazoline] |
| 6 | 9.6 | 3.1 | COc1cc2ncnc(-c3cn(C)nc3-c3ccccc3)c2cc1OC(=O)N1CCOC(C)(C)C1 [Example 80, 7-methoxy-4-(1-methyl-3-phenyl-1H-pyrazol-4-yl)quinazolin-6-yl 2,2-dimethylmorpholine-4-carboxylate] |
| 92.4 | 258 | 31.9 | [2H]C([2H])([2H])n1ncc(-c2ncnc3cc(OC)c(NC(=O)C45CC(N(C)C)(C4)C5)nc23)c1-c1ccccc1 [Example 493] |
| 2.3 | 2.1 | 1.6 | CCn1cc(-c2ncnc3cc(OC)c(NC(=O)c4cccnc4)cc23)c(-c2ccccc2)n1 [Example 332, N-(4-(1-ethyl-3-phenyl-1H-pyrazol-4-yl)-7-methoxyquinazolin-6-yl) nicotinamide] |
| 5.9 | 11.4 | 2.7 | COc1cc2ncnc(-c3cn(C)nc3-c3ccccc3)c2nc1NC(=O)[C@@]1(C(F)(F)F)CCCN1C (single isomer, unassigned) [Example 429, (R)—N-(7-methoxy-4-(1-methyl-3-phenyl-1H-pyrazol-4-yl)pyrido[3,2-d]pyrimidin-6-yl)-1-methyl-2-(trifluoromethyl) pyrrolidine-2-carboxamide or (S)—N-(7-methoxy-4-(1-methyl-3-phenyl-1H-pyrazol-4-yl)pyrido[3,2-d]pyrimidin-6-yl)-1-methyl-2-(trifluoromethyl) pyrrolidine-2-carboxamide] |
| 7 | 6 | 2.6 | CCOc1cc2ncnc(-c3cn(C)nc3-c3ccccc3)c2cc1N1CCN(C)CC1 [Example 162, 7-ethoxy-4-(1-methyl-3-phenyl-1H-pyrazol-4-yl)-6-(4-methylpiperazin-1-yl)quinazoline] |
| 1.6 | 3.3 | 1.9 | COc1cc2ncnc(-c3cn(C)nc3-c3ccccc3)c2cc1C1=CCN(C)C1 [Example 131, 7-methoxy-6-(1-methyl-2,5-dihydro-1H-pyrrol-3-yl)-4-(1-methyl-3-phenyl-1H-pyrazol-4-yl)quinazoline] |
| 3.9 | 1.7 | 0.8 | Cn1cc(-c2ncnc3cc(OC4CC4)c(NC(=O)C4(C(F)(F)F)CC4)nc23)c(-c2ccccc2)n1 [Example 463, N-[7-cyclopropoxy-4-(1-methyl-3-phenyl-1H-pyrazol-4-yl)pyrido[3,2-d]pyrimidin-6-yl]-1-(trifluoromethyl)cyclopropane-1-carboxamide] |
| 1.2 | 1.3 | 0.9 | CCn1cc(-c2ncnc3cc(OC)c(NC(=O)[C@]45C[C@H]4CN(C)C5)nc23)c(-c2ccc(F)cc2)n1 (single isomer, unassigned) [Example 399, (1R,5R)—N-(4-(1-ethyl-3-(4-fluorophenyl)-1H-pyrazol-4-yl)-7-methoxypyrido[3,2-d]pyrimidin-6-yl)-3-methyl-3-azabicyclo[3.1.0]hexane-1-carboxamide or (1S,5S)—N-(4-(1-ethyl-3-(4-fluorophenyl)-1H-pyrazol-4-yl)-7-methoxypyrido[3,2-d]pyrimidin-6-yl)-3-methyl-3-azabicyclo[3.1.0]hexane-1-carboxamide] |
| 2.2 | 4.4 | 1.1 | COc1cc2ncnc(-c3cn(C)nc3-c3ccccc3)c2nc1NC(=O)c1ccc(C2CC2)nc1 [Example 357, 6-cyclopropyl-N-(7-methoxy-4-(1-methyl-3-phenyl-1H-pyrazol-4-yl)pyrido[3,2-d]pyrimidin-6-yl)nicotinamide] |
| 4.3 | 2.7 | 1.1 | COc1cc2ncnc(-c3cn(C)nc3-c3ccccc3)c2cc1[C@H]1CN(C)CCO1 (single isomer, unassigned) [Example 129, (S)-2-(7-methoxy-4-(1-methyl-3-phenyl-1H-pyrazol-4-yl)quinazolin-6-yl)-4-methylmorpholine or (R)-2-(7-methoxy-4-(1-methyl-3-phenyl-1H-pyrazol-4-yl)quinazolin-6-yl)-4-methylmorpholine] |
| 2.9 | 6.4 | 1.7 | COc1cc2ncnc(-c3cn(C)nc3-c3ccccc3)c2cc1N1CCC[C@H](O)C1 [Example 164, (S)-1-(7-methoxy-4-(1-methyl-3-phenyl-1H-pyrazol-4-yl)quinazolin-6-yl) piperidin-3-ol] |
| 3.8 | 13 | 1.1 | COc1cc2ncnc(-c3cn(C)nc3-c3ccccc3)c2nc1-c1cccc2c1OCC(=O)N2 [Example 154, 8-(7-methoxy-4-(1-methyl-3-phenyl-1H-pyrazol-4-yl)pyrido[3,2-d]pyrimidin-6-yl)-2H-benzo[b][1,4]oxazin-3(4H)-one] |
| 2.4 | 2.2 | 1.5 | CCn1cc(-c2ncnc3cc(OC)c(NC(=O)[C@@]45COC[C@@H]4C5)cc23)c(-c2ccc(F)cc2)n1 [Example 334, (1R,5R)—N-(4-(1-ethyl-3-(4-fluorophenyl)-1H-pyrazol-4-yl)-7-methoxyquinazolin-6-yl)-3-oxabicyclo[3.1.0]hexane-1-carboxamide] |
| 1.2 | 15.3 | 2.3 | CCn1ncc(-c2ncnc3cc(-c4cnn(C)c4)ccc23)c1-c1ccccc1 [Example 495] |
| 3.6 | 12.5 | 2.5 | COc1cc2ncnc(-c3cn(C)nc3-c3ccccc3)c2cc1C(O)C1CC1 (stereo not drawn) [Example 128, cyclopropyl (7-methoxy-4-(1-methyl-3-phenyl-1H-pyrazol-4-yl)quinazolin-6-yl)methanol] |
| 1.6 | 1.5 | 0.9 | COc1cc2ncnc(-c3cn(C)nc3-c3ccccc3)c2cc1NC(=O)c1cn(C(F)(F)F)nc1C [Example 235, N-(7-methoxy-4-(1-methyl-3-phenyl-1H-pyrazol-4-yl)quinazolin-6-yl)-3-methyl-1-(trifluoromethyl)-1H-pyrazole-4-carboxamide] |
| 2.3 | 3.5 | 1.7 | COc1cc2ncnc(-c3cn(C)nc3-c3ccccc3)c2cc1O[C@H]1CN(C)C[C@@H]1F [Example 6, 6-(((3S,4S)-4-fluoro-1-methylpyrrolidin-3-yl)oxy)-7-methoxy-4-(1-methyl-3-phenyl-1H-pyrazol-4-yl)quinazoline] |
| 3.2 | 5.7 | 1.9 | COc1cc2ncnc(-c3cn(CC(F)F)nc3-c3ccccc3)c2cc1[C@H](C)O (single isomer, unassigned) [Example 101, (S)-1-(4-(1-(2,2-difluoroethyl)-3-phenyl-1H-pyrazol-4-yl)-7-methoxyquinazolin-6-yl)ethan-1-ol or (R)-1-(4-(1-(2,2-difluoroethyl)-3-phenyl-1H-pyrazol-4-yl)-7-methoxyquinazolin-6-yl)ethan-1-ol] |
| 10.6 | 1.6 | 1 | COc1cc2ncnc(-c3cn(C)nc3-c3ccccc3)c2nc1O[C@@H](C)c1ncsc1C (single isomer, unassigned) [Example 54, (S)-4-(1-((7-methoxy-4-(1-methyl-3-phenyl-1H-pyrazol-4-yl)pyrido[3,2-d]pyrimidin-6-yl)oxy)ethyl)-5-methylthiazole or (R)-4-(1-((7-methoxy-4-(1-methyl-3-phenyl-1H-pyrazol-4-yl)pyrido[3,2-d]pyrimidin-6-yl)oxy)ethyl)-5-methylthiazole] |

| SMILES | IC50 (EGFR L858R) [nM] | IC50 [1] [nM] | IC50 (EGFR (d746-750)) [nM] |
| --- | --- | --- | --- |
| COc1cc2ncnc(-c3cn(C)nc3-c3ccccc3)c2cc1OC(=O)N1C[C@H](C)N(C)C[C@@H]1C [Example 97, 7-methoxy-4-(1-methyl-3-phenyl-1H-pyrazol-4-yl)quinazolin-6-yl (2S,5S)-2,4,5-trimethylpiperazine-1-carboxylate] | 7.8 | 12.4 | 4.9 |
| COc1cc2ncnc(-c3cn(C)nc3-c3ccccc3)c2cc1OC(=O)N1CCN(C)CC1C (stereo not drawn) [Example 57, 7-methoxy-4-(1-methyl-3-phenyl-1H-pyrazol-4-yl)quinazolin-6-yl 2,4-dimethylpiperazine-1-carboxylate] | 2.3 | 2.2 | 1.7 |
